Experimental data published in ChEMBL document CHEMBL1275256, “Contribution of a plasmid-borne blaOXA-58 gene with its hybrid promoter provided by IS1006 and an ISAba3-like element to beta-lactam resistance in acinetobacter genomic species 13TU” (2010).
Converted amounts (≈) assume the structure as drawn. The source made the active and inactive calls. The rule behind the calls is not given here.

Assays:
Format in all cases: functional
[1] = Antimicrobial activity against Acinetobacter genomic species 13TU ATCC 17903 harboring pYMAb3 plasmid by agar dilution method; conditions: Acinetobacter nosocomialis
[2] = Antimicrobial activity against Acinetobacter genomic species 13TU ATCC 17903 harboring pOXA-58-7 plasmid by agar dilution method; conditions: Acinetobacter nosocomialis
[3] = Antimicrobial activity against Acinetobacter genomic species 13TU ATCC 17903 by agar dilution method; conditions: Acinetobacter nosocomialis
[4] = Antimicrobial activity against Acinetobacter genomic species 13TU ATCC 17903 harboring pOXA-58-5 plasmid by agar dilution method; conditions: Acinetobacter nosocomialis
[5] = Antimicrobial activity against Acinetobacter genomic species 13TU ATCC 17903 harboring pOXA-58-6 plasmid by agar dilution method; conditions: Acinetobacter nosocomialis
[6] = Antimicrobial activity against Acinetobacter genomic species 13TU by agar dilution method; conditions: Acinetobacter nosocomialis
[7] = system: Acinetobacter nosocomialis; experiment: Antimicrobial activity against Acinetobacter genomic species 13TU ATCC 17903 harboring pOXA-58-6 plasmid by Etest method
[8] = system: Acinetobacter nosocomialis; experiment: Antimicrobial activity against Acinetobacter genomic species 13TU ATCC 17903 harboring pOXA-58-5 plasmid by Etest method
[9] = Antimicrobial activity against Acinetobacter genomic species 13TU ATCC 17903 by Vitek II system; conditions: Acinetobacter nosocomialis
[10] = Antimicrobial activity against Acinetobacter genomic species 13TU ATCC 17903 harboring pYMAb3 plasmid by Vitek II system; conditions: Acinetobacter nosocomialis
[11] = Antimicrobial activity against Acinetobacter genomic species 13TU ATCC 17903 harboring pOXA-58-6 plasmid by Vitek II system; conditions: Acinetobacter nosocomialis
[12] = Antimicrobial activity against Acinetobacter genomic species 13TU ATCC 17903 harboring pOXA-58-7 plasmid by Vitek II system; conditions: Acinetobacter nosocomialis
[13] = Antimicrobial activity against Acinetobacter genomic species 13TU ATCC 17903 harboring pOXA-58-5 plasmid by Vitek II system; conditions: Acinetobacter nosocomialis
[14] = Antimicrobial activity against Acinetobacter genomic species 13TU by Vitek II system; conditions: Acinetobacter nosocomialis
[15] = Antimicrobial activity against Acinetobacter genomic species 13TU ATCC 17903 harboring pOXA-58-5 plasmid by Vitek II system in presence of Tazobactam; conditions: Acinetobacter nosocomialis
[16] = Antimicrobial activity against Acinetobacter genomic species 13TU by Vitek II system in presence of Tazobactam; conditions: Acinetobacter nosocomialis
[17] = Antimicrobial activity against Acinetobacter genomic species 13TU ATCC 17903 by Vitek II system in presence of Tazobactam; conditions: Acinetobacter nosocomialis

SMILES	MIC [1] [µg/mL]	MIC [2] [µg/mL]	MIC [3] [µg/mL]	MIC [4] [µg/mL]	MIC [5] [µg/mL]	MIC [6] [µg/mL]	Activity [7]	Activity [8]	MIC [9] [µg/mL]	MIC [10] [µg/mL]	MIC [11] [µg/mL]	MIC [12] [µg/mL]	MIC [13] [µg/mL]	MIC [14] [µg/mL]	MIC [15] [µg/mL]	MIC [16] [µg/mL]	MIC [17] [µg/mL]
CC1(C)S[C@@H]2[C@H](NC(=O)[C@H](C(=O)O)c3ccsc3)C(=O)N2[C@H]1C(=O)O [TICARCILLIN]	16 (≈ 41.6 µM)	256 (≈ 666 µM)	16 (≈ 41.6 µM)	> 1020	> 1020	> 1020	–	–	–	–	–	–	–	–	–	–	–
CC(C)(O/N=C(\C(=O)N[C@@H]1C(=O)N2C(C(=O)[O-])=C(C[n+]3ccccc3)CS[C@H]12)c1csc(N)n1)C(=O)O [CEFTAZIDIME]	4 (≈ 7.32 µM)	4 (≈ 7.32 µM)	4 (≈ 7.32 µM)	4 (≈ 7.32 µM)	4 (≈ 7.32 µM)	16 (≈ 29.3 µM)	–	–	–	–	–	–	–	–	–	–	–
CC1(C)S[C@@H]2[C@H](NC(=O)[C@H](N)c3ccc(O)cc3)C(=O)N2[C@H]1C(=O)O [AMOXICILLIN]	64 (≈ 175 µM)	256 (≈ 701 µM)	64 (≈ 175 µM)	> 1020	> 1020	> 1020	–	–	–	–	–	–	–	–	–	–	–
C[C@@H](O)[C@H]1C(=O)N2C(C(=O)O)=C(S[C@@H]3CN[C@H](C(=O)N(C)C)C3)[C@H](C)[C@H]12 [MEROPENEM]	0.5 (≈ 1.3 µM)	0.5 (≈ 1.3 µM)	0.5 (≈ 1.3 µM)	16 (≈ 41.7 µM)	8 (≈ 20.9 µM)	8 (≈ 20.9 µM)	inactive	–	–	–	–	–	–	–	–	–	–
CO/N=C(\C(=O)N[C@@H]1C(=O)N2C(C(=O)[O-])=C(C[N+]3(C)CCCC3)CS[C@H]12)c1csc(N)n1 [CEFEPIME]	2 (≈ 4.16 µM)	–	2 (≈ 4.16 µM)	4 (≈ 8.32 µM)	2 (≈ 4.16 µM)	128 (≈ 266 µM)	–	–	–	–	–	–	–	–	–	–	–
C[C@@H](O)[C@H]1C(=O)N2C(C(=O)O)=C(SCCNC=N)C[C@H]12 [IMIPENEM ANHYDROUS]	0.25 (≈ 0.835 µM)	0.5 (≈ 1.67 µM)	0.25 (≈ 0.835 µM)	32 (≈ 107 µM)	16 (≈ 53.4 µM)	16 (≈ 53.4 µM)	–	inactive	–	–	–	–	–	–	–	–	–
CO/N=C(\C(=O)N[C@@H]1C(=O)N2C(C(=O)O)=C(COC(N)=O)CS[C@H]12)c1ccco1 [CEFUROXIME]	–	–	–	–	–	–	–	–	16 (≈ 37.7 µM)	16 (≈ 37.7 µM)	16 (≈ 37.7 µM)	16 (≈ 37.7 µM)	≥ 64	≥ 64	–	–	–
CCN1CCN(C(=O)N[C@@H](C(=O)N[C@@H]2C(=O)N3[C@@H]2SC(C)(C)[C@@H]3C(=O)O)c2ccccc2)C(=O)C1=O [PIPERACILLIN]	16 (≈ 30.9 µM)	32 (≈ 61.8 µM)	16 (≈ 30.9 µM)	> 1020	512 (≈ 989 µM)	> 1020	–	–	–	–	–	–	–	–	≥ 128	≥ 128	≤ 4
